Active and inactive are the calls of the source. The calls are words filed in the database; no cut-off is given here. Non-standard residues stand in square brackets, D forms with d. Residues, ends and D or L forms follow the SMILES beside them. Gly(N-(CH2)3N-pyrrolidone) = O=C(O)CNCCCN1CCCC1=O; N(4-hydroxyphenethyl)Gly = O=C(O)CNCCc1ccc(O)cc1; NFurfurylGly = O=C(O)CNCc1ccco1; Nleu = CC(C)CNCC(=O)O; Nlys = NCCCCNCC(=O)O; Nme = COCCNCC(=O)O
Key:
[1] = target: T1, Bromodomain-containing protein 4 (Homo sapiens, UniProt O60885); experiment: Binding affinity to modified phosphorylated human BRD4 phosphorylation-dependent interaction domain (598-785) using fluorescein 5-maleimide by fluorescence polarization method
[2] = target: T1, Bromodomain-containing protein 4; experiment: Binding affinity to modified phosphorylated human BRD4 phosphorylation-dependent interaction domain (598-785) expressed in Sf9 cells assessed as red fluorescence by SDS-PAGE method based one-bead binding assay
[3] = target: T1, Bromodomain-containing protein 4; experiment: Binding affinity to Flag tagged phosphorylated human BRD4 phosphorylation-dependent interaction domain (287-530) assessed as formation of cross-linking products at 0.1 uM in presence of sodium periodate using Neutravedin HRP by SDS-PAGE method
[4] = target: T1, Bromodomain-containing protein 4; experiment: Binding affinity to modified phosphorylated human BRD4 phosphorylation-dependent interaction domain (287-530) expressed in Sf9 cells assessed as formation of cross-linking products in absence of sodium periodate using Neutravedin HRP by Western blot method
[5] = target: T1, Bromodomain-containing protein 4; experiment: Binding affinity to Flag tagged phosphorylated human BRD4 phosphorylation-dependent interaction domain (287-530) assessed as formation of cross-linking products at 0.5 uM in presence of sodium periodate using Neutravedin HRP by SDS-PAGE method
[6] = target: T1, Bromodomain-containing protein 4; experiment: Binding affinity to Flag tagged phosphorylated human BRD4 phosphorylation-dependent interaction domain (287-530) assessed as formation of cross-linking products at 0.5 uM in absence of sodium periodate using Neutravedin HRP by SDS-PAGE method
[7] = target: T1, Bromodomain-containing protein 4; experiment: Binding affinity to modified phosphorylated human BRD4 phosphorylation-dependent interaction domain (287-530) expressed in Sf9 cells assessed as formation of cross-linking products in presence of sodium periodate using Neutravedin HRP by Western blot method

| Kd [1] | Activity [2] | Activity [3] | Activity [4] | Activity [5] | Activity [6] | Activity [7] | SMILES |
| --- | --- | --- | --- | --- | --- | --- | --- |
| 50 µM | inactive |  |  |  |  |  | COCCN(CC(=O)N(CCCCN)CC(=O)N(CCCCN)CC(N)=O)C(=O)CN(CCCCN)C(=O)CN(CCc1ccc(O)cc1)C(=O)CNCC(C)C (H-[Nleu][N(4-hydroxyphenethyl)Gly][Nlys][Nme][Nlys][Nlys]-NH2) |
|  |  | inactive | inactive | Active | inactive | Active | COCCN(CC(=O)N(CCCCN)CC(=O)N(CCCCN)CC(=O)NC(Cc1ccc(O)c(O)c1)C(=O)N[C@H](CCC(=O)NCCCOCCOCCOCCCNC(=O)CCCC[C@@H]1SC[C@@H]2NC(=O)N[C@@H]21)C(N)=O)C(=O)CN(CCCCN)C(=O)CN(CCc1ccc(O)cc1)C(=O)CNCC(C)C (stereo partly drawn) |
|  | Active |  |  |  |  |  | CC(C)CN(CC(=O)N(CCCCN)CC(=O)N(CC(=O)N(CCCCN)CC(=O)N(CCCCN)CC(N)=O)Cc1ccco1)C(=O)CNCCCN1CCCC1=O (H-[Gly(N-(CH2)3N-pyrrolidone)][Nleu][Nlys][NFurfurylGly][Nlys][Nlys]-NH2) |
